“And” between values parts separate entries of the source, which are not always exact repeats. Equal entries are not always repeated. Toxic doses and inconclusive results are not listed. No stated cut-off is given here; in the data, active means T/C of 150% or more; inactive means T/C below 125%.
Tested on: L1210 leukemia ip in BDF1 mice, survival T/C
Assay: NCI In Vivo Anticancer Drug Screen. Data for tumor model L1210 Leukemia (intraperitoneal) in B6D2F1 (BDF1) mice
Conditions: endpoint: mean survival time, higher = longer survival
Outline: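 Mice bearing the transplanted tumor received compound or vehicle. Survival of the treated group was divided by that of the vehicle-treated control group to give the ratio.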

[1] = dose: 100.0 mg/kg/injection, schedule: Q04DX002 (ip), vehicle: saline with Tween-80
[2] = dose: 200.0 mg/kg/injection, schedule: Q04DX002 (ip), vehicle: saline with Tween-80
[3] = dose: 400.0 mg/kg/injection, schedule: Q04DX002 (ip), vehicle: saline with Tween-80
[4] = dose: 100.0 mg/kg/injection, schedule: Q01DX001 (ip), vehicle: saline
[5] = dose: 200.0 mg/kg/injection, schedule: Q01DX001 (ip), vehicle: saline
[6] = dose: 400.0 mg/kg/injection, schedule: Q01DX001 (ip), vehicle: saline
[7] = dose: 50.0 mg/kg/injection, schedule: Q01DX009 (ip), vehicle: saline with Tween-80
[8] = dose: 100.0 mg/kg/injection, schedule: Q01DX009 (ip), vehicle: saline with Tween-80

Measured: T/C

ClC1=CCCCC1
inactive: dose: 25.0 mg/kg/injection, schedule: Q01DX009 (ip), vehicle: acetone 95 % of control | dose: 50.0 mg/kg/injection, schedule: Q01DX009 (ip), vehicle: acetone 101 % of control | dose: 100.0 mg/kg/injection, schedule: Q01DX009 (ip), vehicle: acetone 100 % of control

COC1CCC(/C(C#N)=C/C2CCC(NC(C)=O)CC2)CC1 (configuration not stated)
inactive: [1] 101 % of control | [2] 105 % of control | [3] 94 % of control

CCOC(=O)C1=C(C(=O)OCC)C2(c3ccccc3)NC1(c1ccccc1)c1ccccc12
inactive: [4] 101 % of control | [5] 97 % of control | [6] 97 % of control

N=C(CC(=O)Nc1ccccc1)c1ccccc1
inactive: dose: 50.0 mg/kg/injection, schedule: Q01DX001 (ip), vehicle: saline 101 % of control | [4] 96 % of control | [5] 102 % of control | [6] 101 % of control

NC(=O)N/N=C/c1[nH]c(=S)[nH]c(=O)c1Cc1ccc(Br)cc1
inactive: dose: 100.0 mg/kg/injection, schedule: Q01DX001 (ip), vehicle: saline with Tween-80 107 % of control | dose: 200.0 mg/kg/injection, schedule: Q01DX001 (ip), vehicle: saline with Tween-80 95 % of control | dose: 400.0 mg/kg/injection, schedule: Q01DX001 (ip), vehicle: saline with Tween-80 98 % of control

CC(=O)OC1CC(OC2C(O)CC(OC3C(O)CC(OC4CCC5(C)C(CCC6C5CCC5(C)C(C7=CC(=O)OC7)CCC65O)C4)OC3C)OC2C)OC(C)C1OC1OC(CO)C(O)C(O)C1O (configuration not stated)
inactive: dose: 10.0 mg/kg/injection, schedule: Q01DX001 (ip), vehicle: saline 101 % of control

O=C1OC(c2cccc(Cl)c2)=N/C1=C\c1ccc2c(c1)OCO2
inactive: [1] 95 % of control | [2] 89 % of control | [3] 92 % of control

O=C(CC(=O)c1ccco1)c1ccccc1
inactive: [4] 102 % of control | [5] 100 % of control | [6] 96 % of control

CCOC(=O)C1=C(C)NC(C)=C(C(=O)OCC)C1c1cccc([N+](=O)[O-])c1
inactive: dose: 100.0 mg/kg/injection, schedule: Q04DX003 (ip), vehicle: Klucel (hydroxypropylcellulose) (HPC) 100 % of control | dose: 200.0 mg/kg/injection, schedule: Q04DX003 (ip), vehicle: Klucel (hydroxypropylcellulose) (HPC) 105 % of control | dose: 400.0 mg/kg/injection, schedule: Q04DX003 (ip), vehicle: Klucel (hydroxypropylcellulose) (HPC) 108 % of control

CC(=O)NC1CCCC(OC(C)=O)C1 (configuration not stated)
inactive: [7] 88 % of control | [8] 91 % of control

COC1OC(COC(C)=O)C(OC(C)=O)C(OC(C)=O)[CH]1[Hg][S]c1ccccc1 (configuration not stated)
inactive: dose: 1.0 mg/kg/injection, schedule: Q01DX015 (ip), vehicle: carboxymethylcellulose (CMC) 105 % of control | dose: 2.0 mg/kg/injection, schedule: Q01DX015 (ip), vehicle: carboxymethylcellulose (CMC) 98 % of control | dose: 4.0 mg/kg/injection, schedule: Q01DX015 (ip), vehicle: carboxymethylcellulose (CMC) 100 % of control | dose: 8.0 mg/kg/injection, schedule: Q01DX015 (ip), vehicle: carboxymethylcellulose (CMC) 94 % of control and 86 % of control | dose: 16.0 mg/kg/injection, schedule: Q01DX015 (ip), vehicle: carboxymethylcellulose (CMC) 109 % of control

O=C(Nc1ccc(Cl)cc1)Oc1ccc(Cl)cc1Cl
inactive: dose: 25.0 mg/kg/injection, schedule: Q01DX009 (ip), vehicle: DMSO 92 % of control | dose: 25.0 mg/kg/injection, schedule: Q04DX002 (ip), vehicle: DMSO 94 % of control | dose: 50.0 mg/kg/injection, schedule: Q01DX009 (ip), vehicle: DMSO 86 % of control | dose: 50.0 mg/kg/injection, schedule: Q04DX002 (ip), vehicle: DMSO 87 % of control | dose: 200.0 mg/kg/injection, schedule: Q04DX002 (ip), vehicle: DMSO 96 % of control

O=C1C(Cl)(Cl)CCCC1(Cl)Cl
inactive: [7] 98 % of control | [8] 105 % of control | dose: 200.0 mg/kg/injection, schedule: Q01DX009 (ip), vehicle: saline with Tween-80 110 % of control

NC(=O)CCC(NC(=O)OCc1ccccc1)C(=O)O (configuration not stated)
inactive: dose: 100.0 mg/kg/injection, schedule: Q01DX009 (ip), vehicle: Klucel (hydroxypropylcellulose) (HPC) 91 % of control | dose: 100.0 mg/kg/injection, schedule: Q04DX002 (ip), vehicle: Klucel (hydroxypropylcellulose) (HPC) 97 % of control | dose: 200.0 mg/kg/injection, schedule: Q01DX009 (ip), vehicle: Klucel (hydroxypropylcellulose) (HPC) 112 % of control | dose: 200.0 mg/kg/injection, schedule: Q04DX002 (ip), vehicle: Klucel (hydroxypropylcellulose) (HPC) 97 % of control | dose: 400.0 mg/kg/injection, schedule: Q01DX009 (ip), vehicle: Klucel (hydroxypropylcellulose) (HPC) 109 % of control | dose: 400.0 mg/kg/injection, schedule: Q04DX002 (ip), vehicle: Klucel (hydroxypropylcellulose) (HPC) 105 % of control

Source: PubChem BioAssay AID248 (DTP/NCI, 2004)
